Key:
[1] = target: T1, β1-receptors of the heart (Canis lupus familiaris, UniProt P79148); assay: Blocking of Isoproterenol-induced increase of maximum rate of left-ventricular pressure rise (Dp/dt max.) in anaesthetised dogs (β1-receptor inhibition); assay type: in vivo, mongrel dogs; conditions: for ED50: dog, intravenous, 50 % inhibition of reaction to Isoproterenol 0.5 gamma/kg i.v., anaesthetised dogs, read-out: β1-receptor inhibition ED 50; for Relative β1-receptor inhibition (reference substance = 100): relative ED 50, Practolol = 100, lower = more active; for Quotient: ED 50 β2-receptor inhibition / ED 50 β1-receptor inhibition: measure of cardioselective action, higher = better; for Quotient, on basis of reference substance = 1: relative cardioselectivity factor, Practolol = 1
T1 construct: from tissue; host or cells: heart (left ventricle) of the living anaesthetised mongrel dog
T1 sequence (P79148 whole entry): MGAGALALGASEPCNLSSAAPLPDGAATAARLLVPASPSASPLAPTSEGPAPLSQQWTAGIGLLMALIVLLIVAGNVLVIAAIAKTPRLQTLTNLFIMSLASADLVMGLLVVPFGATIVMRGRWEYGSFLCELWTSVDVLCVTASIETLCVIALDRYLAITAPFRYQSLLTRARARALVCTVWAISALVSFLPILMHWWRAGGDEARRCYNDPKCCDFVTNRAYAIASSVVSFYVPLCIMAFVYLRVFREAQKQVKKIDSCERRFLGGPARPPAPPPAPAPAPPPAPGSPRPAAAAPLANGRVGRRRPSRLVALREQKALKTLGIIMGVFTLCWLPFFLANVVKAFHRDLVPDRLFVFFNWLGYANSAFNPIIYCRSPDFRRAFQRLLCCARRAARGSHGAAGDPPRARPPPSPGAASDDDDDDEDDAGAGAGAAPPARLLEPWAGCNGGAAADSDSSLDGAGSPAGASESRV
Description: (§1) The blocking action of the compounds according to the invention on the β1-receptors of the heart and on the β2-receptors of the cardiovascular system was investigated as follows: the blood pressure in the left-hand ventricle was measured on mongrel dogs of both sexes under anaesthesia by Chloralose-urethane-morphine and the pressure signal was continuously differentiated by means of an analogue computer (BRUSH Instruments, Cleveland/Ohio) and, inter alia, the rate of pressure increase (Dp/dt) was recorded. In addition, the perfusion of a femoral artery was measured by means of an electromagnetic flow meter (Model […] of Messrs. Statham) and the perfusion was recorded in ml/minutes. […] DUNLOP and […]: Selective blockade of adrenoceptive beta-receptors in the heart. Brit. J. Pharmac. Chemother. (1968) 32, 201-218). The substances to be tested for β-receptor blocking were administered intravenously in increasing dosages to the animals, which had been anaesthetised and stimulated by means of Isoproterenol, and the quantity of substance was determined at which a 50 % inhibition of the two reactions caused by Isoproterenol occurred (ED50). […] The higher this quotient is, the better the cardioselective action.

[2] = target: T2, β2-receptors of the cardiovascular system (Canis lupus familiaris, UniProt P54833); assay: Blocking of Isoproterenol-induced alteration of peripheral perfusion of the femoral artery in anaesthetised dogs (β2-receptor inhibition); assay type: in vivo, mongrel dogs; conditions: for ED50: dog, intravenous, 50 % inhibition of reaction to Isoproterenol 0.05 gamma/kg intra-arterial, anaesthetised dogs, read-out: β2-receptor inhibition ED 50; for Relative β2-receptor inhibition (reference substance = 100): relative ED 50, Practolol = 100
T2 construct: from tissue; host or cells: femoral vascular bed of the living anaesthetised mongrel dog
T2 sequence (P54833 whole entry, the tested form may be a part): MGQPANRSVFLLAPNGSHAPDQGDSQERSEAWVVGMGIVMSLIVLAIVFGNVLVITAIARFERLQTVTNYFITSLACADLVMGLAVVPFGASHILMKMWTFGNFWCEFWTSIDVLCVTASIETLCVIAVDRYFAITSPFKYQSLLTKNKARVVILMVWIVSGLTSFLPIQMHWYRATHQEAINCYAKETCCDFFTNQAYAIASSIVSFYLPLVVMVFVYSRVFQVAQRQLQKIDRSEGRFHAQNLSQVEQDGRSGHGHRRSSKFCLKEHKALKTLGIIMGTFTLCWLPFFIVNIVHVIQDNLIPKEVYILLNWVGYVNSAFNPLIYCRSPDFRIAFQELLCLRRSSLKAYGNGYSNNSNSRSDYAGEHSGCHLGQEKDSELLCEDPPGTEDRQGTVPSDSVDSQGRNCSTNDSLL
Description: as §1

| SMILES | ED50 [1] [mg/kg] | Relative β1-receptor inhibition (reference substance = 100) [1] | Quotient: ED 50 β2-receptor inhibition / ED 50 β1-receptor inhibition [1] | Quotient, on basis of reference substance = 1 [1] | ED50 [2] [mg/kg] | Relative β2-receptor inhibition (reference substance = 100) [2] |
| --- | --- | --- | --- | --- | --- | --- |
| Cc1ccc(C(O)CC(C)NCC(O)COc2ccc(Br)cc2)cn1 (centres unmarked) [1-(4-Bromo-phenoxy)-3-(1-[6-methyl-pyridyl-3]-1-hydroxy-butyl-(3)-amino)-propan-2-ol] | 0.074 | 31.1 |  |  |  |  |
| CCCCCOc1ccc(OCC(O)CNC(C)CC(O)c2ccc(C)nc2)cc1 (centres unmarked) [1-(4-n-Pentyloxy-phenoxy)-3-(1-[6-methyl-pyridyl-3]-1-hydroxy-butyl-(3)-amino)-propan-2-ol] | 0.057 | 29.9 | 136 | 1.2 | 7.74 | 29.2 |
| CCCOc1ccc(OCC(O)CNC(C)CC(O)c2ccc(C)nc2)cc1 (centres unmarked) [1-(4-n-Propoxy-phenoxy)-3-(1-[6-methyl-pyridyl-3]-1-hydroxy-butyl-(3)-amino)-propan-2-ol] | 0.011 | 4.6 | 171 | 1.5 | 1.8 | 6.8 |
| CCCCOc1ccc(OCC(O)CNC(C)CC(O)c2ccc(C)nc2)cc1 (centres unmarked) [1-(4n-Butoxy-phenoxy)-3-(1-[6-methyl-pyridyl-3]-1-hydroxy-butyl-(3)-amino)-propan-2-ol] | 0.067 | 28.2 | 487 | 4.4 | 32.7 | 123.2 |
| CC(=O)Nc1ccc(OCC(O)CNC(C)CC(O)c2ccc(C)nc2)cc1 (centres unmarked) [1-(p-Acetamino-phenoxy)-3-(1-[6-methyl-pyridyl-3]-1-hydroxy-butyl-(3)-amino)-propan-2-ol] | 0.012 | 5.04 | 165 | 1.5 | 1.99 | 7.5 |
| CC(=O)Nc1ccc(OCC(O)CNC(C)C)cc1 (centres unmarked) [4-(2-Hydroxy-3-isopropylamino-propoxy)-acetanilide, reference compound] | 0.238 | 100 | 110 | 1 | 26.5 | 100 |
